Where two headings read alike, the source gives them in different places.
Molecular target: T1, ACAT 2 (Mus musculus, UniProt O88908)
T1 construct: The source of ACAT 2 enzyme used was a membrane fraction derived from mouse liver microsome; from tissue; host or cells: mouse liver (microsome fraction)
T1 sequence (O88908 1-525): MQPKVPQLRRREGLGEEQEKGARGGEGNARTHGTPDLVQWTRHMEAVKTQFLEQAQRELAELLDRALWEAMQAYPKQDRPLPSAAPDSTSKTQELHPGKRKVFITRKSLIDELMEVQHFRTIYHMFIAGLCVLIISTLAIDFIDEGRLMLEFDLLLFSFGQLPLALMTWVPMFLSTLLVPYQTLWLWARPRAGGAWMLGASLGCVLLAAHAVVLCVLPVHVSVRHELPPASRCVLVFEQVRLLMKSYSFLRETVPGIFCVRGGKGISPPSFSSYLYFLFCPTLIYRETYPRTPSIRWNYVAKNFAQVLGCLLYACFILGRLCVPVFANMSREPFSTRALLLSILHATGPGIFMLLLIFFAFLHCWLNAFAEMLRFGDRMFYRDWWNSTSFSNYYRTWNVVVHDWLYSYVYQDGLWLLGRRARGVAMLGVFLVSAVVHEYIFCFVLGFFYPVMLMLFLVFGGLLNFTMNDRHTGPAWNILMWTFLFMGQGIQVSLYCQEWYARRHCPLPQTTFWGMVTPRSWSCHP
Assay: ACAT-inhibiting activity, mouse liver microsome membrane fraction, [14C]oleoyl-CoA
Assay type: biochemical
Conditions: for Specific activity: (inhibitory activity of test compound)/(inhibitory activity of pyripyropene A): relative to pyripyropene A
Summary of the method: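 Enzyme source: mouse liver microsomal membrane fraction (100000×g pellet) at 5 mg/ml protein in 50 mM Tris-HCl pH 7.8, 1 mM EDTA, 1 mM PMSF; substrate [14C]oleoyl-CoA. Chloroform-extracted lipids resolved by silica TLC in hexane/diethyl ether/acetic acid (70:30:1).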

[1] = mouse liver microsome, 5 minutes at 37° C.

Row | Structure (SMILES) | IC50 [1] [nM] | Specific activity: (inhibitory activity of test compound)/(inhibitory activity of pyripyropene A) | IC50 [nM]
1 | CC(=O)OCC1(C)C2C[C@@H](N=[N+]=[N-])[C@@]3(C)Oc4cc(-c5cccnc5)oc(=O)c4[C@H](O)C3[C@@]2(C)CC[C@@H]1OC(C)=O (stereo partly drawn) [PRD 062, 7-(R)-azide-7-(S)-deacetylpyripyropene A] | 100 to 1000 | + (5 > specific activity > 1) | 
2 | CC(=O)OCC1(C)C2C[C@@H](I)[C@@]3(C)Oc4cc(-c5cccnc5)oc(=O)c4[C@H](O)C3[C@@]2(C)CC[C@@H]1OC(C)=O (stereo partly drawn) [PRD 064, 7-(R)-iodo-7-(S)-deacetylpyripyropene A] | 100 to 1000 | + (5 > specific activity > 1) | 
3 | CC(=O)OCC1(C)C2C[C@@H](Cl)[C@@]3(C)Oc4cc(-c5cccnc5)oc(=O)c4[C@H](O)C3[C@@]2(C)CC[C@@H]1OC(C)=O (stereo partly drawn) [PRD 065, 7-(R)-chloro-7-(S)-deacetylpyripyropene A] |  | + (5 > specific activity > 1) | 100 to 1000
4 | COc1ccc(-n2nnnc2S[C@@H]2CC3C(C)(COC(C)=O)[C@@H](OC(C)=O)CC[C@]3(C)C3[C@@H](O)c4c(cc(-c5cccnc5)oc4=O)O[C@@]32C)cc1 (stereo partly drawn) [PRD 066, 7-(R)-{sulfinyl-5-(p-methoxyphenyl)tetrazol-1-yl}-7-(S)-deacetylpyripyropene A] | 100 to 1000 | + (5 > specific activity > 1) | 
5 | CC(=O)OCC1(C)C2C[C@H](OC(=O)C3CCCC3)[C@@]3(C)Oc4cc(-c5cccnc5)oc(=O)c4[C@H](O)C3[C@@]2(C)CC[C@@H]1OC(C)=O (stereo partly shown) [PRD 075, 7-O-cyclopentanecarboxyl-7-deacetylpyripyropene A] |  | ++ (10 > specific activity > 5) | 10 to 100
6 | COc1ccc(CCC(=O)O[C@H]2CC3C(C)(COC(C)=O)[C@@H](OC(C)=O)CC[C@]3(C)C3[C@@H](O)c4c(cc(-c5cccnc5)oc4=O)O[C@@]32C)cc1 (stereo partly shown) [PRD 084, 7-O-3-(4-methoxyphenyl)propionyl-7-deacetylpyripyropene A] | 10 to 100 | +++ (50 > specific activity > 10) | 
7 | CC(=O)OCC1(C)C2C[C@H](OC(=O)C3CCC(C)CC3)[C@@]3(C)Oc4cc(-c5cccnc5)oc(=O)c4[C@H](O)C3[C@@]2(C)CC[C@@H]1OC(C)=O (stereo partly drawn) [PRD 085, 7-O-4-trans-methylcyclohexanecarboxyl-7-deacetylpyripyropene A] | 10 to 100 | + (5 > specific activity > 1) | 
8 | COc1ccc(CC(=O)O[C@H]2CC3C(C)(COC(C)=O)[C@@H](OC(C)=O)CC[C@]3(C)C3[C@@H](O)c4c(cc(-c5cccnc5)oc4=O)O[C@@]32C)cc1 (stereo partly shown) [PRD 087, 7-O-4-methoxyphenylacetyl-7-deacetylpyripyropene A] | 100 to 1000 | + (5 > specific activity > 1) | 
9 | CC(=O)OCC1(C)C2C[C@H](OC(=O)Cn3cc(C)c(=O)[nH]c3=O)[C@@]3(C)Oc4cc(-c5cccnc5)oc(=O)c4[C@H](O)C3[C@@]2(C)CC[C@@H]1OC(C)=O (stereo partly shown) [PRD 090, 7-O-1-thymineacetyl-7-deacetylpyripyropene A] | 100 to 1000 | + (5 > specific activity > 1) | 
10 | CC(=O)OCC1(C)C2C[C@H](OC(=O)Cn3cnnn3)[C@@]3(C)Oc4cc(-c5cccnc5)oc(=O)c4[C@H](O)C3[C@@]2(C)CC[C@@H]1OC(C)=O (stereo partly shown) [PRD 092, 7-O-2-(1H-tetrazol-1-yl)acetyl-7-deacetylpyripyropene A] |  | + (5 > specific activity > 1) | 100 to 1000
11 | CC(=O)OCC1(C)C2C[C@H](OC(=O)CCCCO)[C@@]3(C)Oc4cc(-c5cccnc5)oc(=O)c4[C@H](O)C3[C@@]2(C)CC[C@@H]1OC(C)=O (stereo partly shown) [PRD 093, 7-O-5-hydroxypentanoyl-7-deacetylpyripyropene A] | 100 to 1000 | + (5 > specific activity > 1) | 
12 | CC(=O)OCC1(C)C2C[C@H](OC(=O)CCN3CCCCC3)[C@@]3(C)Oc4cc(-c5cccnc5)oc(=O)c4[C@H](O)C3[C@@]2(C)CC[C@@H]1OC(C)=O (stereo partly shown) [PRD 095, 7-O-3-(pyperidin-1-yl)propionyl-7-deacetylpyripyropene A] | 100 to 1000 | + (5 > specific activity > 1) | 
13 | CC(=O)OCC1(C)C2C[C@H](OC(=O)c3cnccn3)[C@@]3(C)Oc4cc(-c5cccnc5)oc(=O)c4[C@H](O)C3[C@@]2(C)CC[C@@H]1OC(C)=O (stereo partly shown) [PRD 096, 7-O-pyrazinecarboxyl-7-deacetylpyripyropene A] | 100 to 1000 | + (5 > specific activity > 1) | 
14 | CC(=O)OCC1(C)C2C[C@H](OC(=O)c3ccc(=O)oc3)[C@@]3(C)Oc4cc(-c5cccnc5)oc(=O)c4[C@H](O)C3[C@@]2(C)CC[C@@H]1OC(C)=O (stereo partly shown) [PRD 098, 7-O-2-pyrone-5-carboxyl-7-deacetylpyripyropene A] | 100 to 1000 | + (5 > specific activity > 1) | 
15 | CC(=O)OCC1(C)C2C[C@H](OC(=O)CCc3ccccc3)[C@@]3(C)Oc4cc(-c5cccnc5)oc(=O)c4[C@H](O)C3[C@@]2(C)CC[C@@H]1OC(C)=O (stereo partly shown) [PRD 100, 7-O-3-phenylpropionyl-7-deacetylpyripyropene A] | < 10 | +++ (50 > specific activity > 10) | 
16 | CC(=O)OCC1(C)C2C[C@H](OC(=O)Cc3nnn[nH]3)[C@@]3(C)Oc4cc(-c5cccnc5)oc(=O)c4[C@H](O)C3[C@@]2(C)CC[C@@H]1OC(C)=O (stereo partly shown) [PRD 102, 7-O-(1H-tetrazol-5-yl)acetyl-7-deacetylpyripyropene A] | 100 to 1000 | + (5 > specific activity > 1) | 
17 | COc1ccc(CCCC(=O)O[C@H]2CC3C(C)(COC(C)=O)[C@@H](OC(C)=O)CC[C@]3(C)C3[C@@H](O)c4c(cc(-c5cccnc5)oc4=O)O[C@@]32C)cc1 (stereo partly shown) [PRD 103, 7-O-4-(4-methoxyphenyl)butytyl-7-deacetylpyripyropene A] | < 10 | +++ (50 > specific activity > 10) | 
18 | CC(=O)OCC1(C)C2C[C@H](OC(=O)CCN3CCN(C)CC3)[C@@]3(C)Oc4cc(-c5cccnc5)oc(=O)c4[C@H](O)C3[C@@]2(C)CC[C@@H]1OC(C)=O (stereo partly shown) [PRD 104, 7-O-3-(4-methylpiperazin-1-yl)propionyl-7-deacetylpyripyropene A] | 100 to 1000 | + (5 > specific activity > 1) | 
19 | CC(=O)OCC1(C)C2C[C@H](OC(=O)c3ccc(Br)c(F)c3)[C@@]3(C)Oc4cc(-c5cccnc5)oc(=O)c4[C@H](O)C3[C@@]2(C)CC[C@@H]1OC(C)=O (stereo partly shown) [PRD 105, 7-O-p-bromo-m-fluorobenzoyl-7-deacetylpyripyropene A] | < 10 | +++ (50 > specific activity > 10) | 
20 | COCOCC(=O)O[C@H]1CC2C(C)(COC(C)=O)[C@@H](OC(C)=O)CC[C@]2(C)C2[C@@H](O)c3c(cc(-c4cccnc4)oc3=O)O[C@@]21C (stereo partly shown) [PRD 106, 7-O-methoxymethoxyacetyl-7-deacetylpyripyropene A] |  | + (5 > specific activity > 1) | 100 to 1000
21 | CC(=O)OCC1(C)C2C[C@H](OC(=O)CO)[C@@]3(C)Oc4cc(-c5cccnc5)oc(=O)c4[C@H](O)C3[C@@]2(C)CC[C@@H]1OC(C)=O (stereo partly shown) [PRD 107, 7-O-hydroxyacetyl-7-deacetylpyripyropene A] | 100 to 1000 | + (5 > specific activity > 1) | 
22 | COCCOCOCC(=O)O[C@H]1CC2C(C)(COC(C)=O)[C@@H](OC(C)=O)CC[C@]2(C)C2[C@@H](O)c3c(cc(-c4cccnc4)oc3=O)O[C@@]21C (stereo partly shown) [PRD 108, 7-O-methoxyethoxymethoxyacetyl-7-deacetylpyripyropene A] | 100 to 1000 | + (5 > specific activity > 1) | 
23 | CC(=O)OCC1(C)C2C[C@H](OC(=O)c3ccc(Br)cc3F)[C@@]3(C)Oc4cc(-c5cccnc5)oc(=O)c4[C@H](O)C3[C@@]2(C)CC[C@@H]1OC(C)=O (stereo partly shown) [PRD 109, 7-O-p-bromo-o-fluorobenzoyl-7-deacetylpyripyropene A] | < 10 | +++ (50 > specific activity > 10) | 
24 | CC(=O)OCC1(C)C(OC(C)=O)CC[C@@]2(C)C1C[C@H](OC(=O)c1ccc(C(N)=O)cc1)[C@@]1(C)Oc3cc(-c4cccnc4)oc(=O)c3[C@H](O)C21 (stereo partly shown) [PRD 111] | 100 to 1000 | + (5 > specific activity > 1) | 
25 | CC(=O)OCC1(C)C2C[C@H](OC(=O)c3ccc(C#N)c(F)c3)[C@@]3(C)Oc4cc(-c5cccnc5)oc(=O)c4[C@H](O)C3[C@@]2(C)CC[C@@H]1OC(C)=O (stereo partly shown) [PRD 112, 7-O-p-cyano-m-fluorobenzoyl-7-deacetylpyripyropene A] |  | +++ (50 > specific activity > 10) | 

From patent US8519128B2, “Pyripyropene derivatives having an ACAT2-inhibiting activity” (The Kitasato Institute, priority 2007, dated 2013)
